Experimental data taken from PubChem BioAssay (NCI).
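Grown in 96-well plates, cells were treated for 48 hours with each compound at five concentrations. Insufficient inhibition: endpoint recorded as highest concentration tested. Definition used: TGI = concentration required for complete inhibition of growth.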

Assays:
Assay in all cases: growth of human tumour cells (NCI), 48 h
[1] = tested on: 786-0 renal
[2] = tested on: A549 NSCLC
[3] = tested on: CAKI-1 renal
[4] = tested on: CCRF-CEM leukemia
[5] = tested on: COLO 205 colon
[6] = tested on: DLD-1 colon
[7] = tested on: DMS 273 small cell lung
[8] = tested on: EKVX NSCLC
[9] = tested on: HCC-2998 colon
[10] = tested on: HCT-116 colon
[11] = tested on: HOP-92 NSCLC
[12] = tested on: HT29 colon
[13] = tested on: IGROV1 ovarian
[14] = tested on: K-562 leukemia
[15] = tested on: KM12 colon
[16] = tested on: KM20L2 colon
[17] = tested on: LOX IMVI melanoma
[18] = tested on: LXFL 529 NSCLC
[19] = tested on: M14 melanoma
[20] = tested on: M19-MEL melanoma
[21] = tested on: MALME-3M melanoma
[22] = tested on: MOLT-4 leukemia
[23] = tested on: NCI-H226 lung
[24] = tested on: NCI-H23 lung
[25] = tested on: NCI-H460 lung
[26] = tested on: NCI-H522 lung
[27] = tested on: OVCAR-3 ovarian
[28] = tested on: OVCAR-4 ovarian
[29] = tested on: OVCAR-5 ovarian
[30] = tested on: OVCAR-8 ovarian
[31] = tested on: RXF 393 renal
[32] = tested on: SF-268 CNS
[33] = tested on: SF-295 CNS
[34] = tested on: SF-539 CNS
[35] = tested on: SK-MEL-2 melanoma
[36] = tested on: SK-MEL-28 melanoma
[37] = tested on: SK-MEL-5 melanoma
[38] = tested on: SK-OV-3 ovarian
[39] = tested on: SN12C renal
[40] = tested on: SNB-19 CNS
[41] = tested on: SNB-75 CNS
[42] = tested on: SNB-78 CNS
[43] = tested on: SR leukemia
[44] = tested on: SW-620 colon
[45] = tested on: TK-10 renal
[46] = tested on: UACC-62 melanoma
[47] = tested on: UO-31 renal
[48] = tested on: XF 498 CNS
[49] = tested on: A498 renal
[50] = tested on: ACHN renal
[51] = tested on: DMS 114 small cell lung
[52] = tested on: HCT-15 colon
[53] = tested on: HL-60(TB) leukemia
[54] = tested on: HOP-62 NSCLC
[55] = tested on: RPMI-8226 leukemia
[56] = tested on: U251 CNS
[57] = tested on: UACC-257 melanoma

Measured: TGI

COc1ccc(/C=c2/sc3n(c2=O)NC2(CCCCC2)NN=3)cc1
not listed: [49] | [50] | [51] | [52] | [53] | [54] | [55] | [56] | [57]
> 100 µM: all other assays above

Cc1nc(N)nn1C1OCC(O)C(O)C1O (stereo not drawn)
not listed: [11] | [17] | [20] | [23] | [29] | [43]
> 100 µM: all other assays above

O=C1c2cccc(O)c2C(=O)c2cccc(O)c21
not listed: [16] | [21] | [36] | [37] | [38] | [43] | [51] | [53]
> 100 µM: all other assays above
